The target of this experiment is T1, NaV1.7 (Homo sapiens, UniProt Q15858).
T1 construct: expressed in transfected cells; tetracycline-inducible, kept under hygromycin and blasticidin
T1 sequence (Q15858 whole entry): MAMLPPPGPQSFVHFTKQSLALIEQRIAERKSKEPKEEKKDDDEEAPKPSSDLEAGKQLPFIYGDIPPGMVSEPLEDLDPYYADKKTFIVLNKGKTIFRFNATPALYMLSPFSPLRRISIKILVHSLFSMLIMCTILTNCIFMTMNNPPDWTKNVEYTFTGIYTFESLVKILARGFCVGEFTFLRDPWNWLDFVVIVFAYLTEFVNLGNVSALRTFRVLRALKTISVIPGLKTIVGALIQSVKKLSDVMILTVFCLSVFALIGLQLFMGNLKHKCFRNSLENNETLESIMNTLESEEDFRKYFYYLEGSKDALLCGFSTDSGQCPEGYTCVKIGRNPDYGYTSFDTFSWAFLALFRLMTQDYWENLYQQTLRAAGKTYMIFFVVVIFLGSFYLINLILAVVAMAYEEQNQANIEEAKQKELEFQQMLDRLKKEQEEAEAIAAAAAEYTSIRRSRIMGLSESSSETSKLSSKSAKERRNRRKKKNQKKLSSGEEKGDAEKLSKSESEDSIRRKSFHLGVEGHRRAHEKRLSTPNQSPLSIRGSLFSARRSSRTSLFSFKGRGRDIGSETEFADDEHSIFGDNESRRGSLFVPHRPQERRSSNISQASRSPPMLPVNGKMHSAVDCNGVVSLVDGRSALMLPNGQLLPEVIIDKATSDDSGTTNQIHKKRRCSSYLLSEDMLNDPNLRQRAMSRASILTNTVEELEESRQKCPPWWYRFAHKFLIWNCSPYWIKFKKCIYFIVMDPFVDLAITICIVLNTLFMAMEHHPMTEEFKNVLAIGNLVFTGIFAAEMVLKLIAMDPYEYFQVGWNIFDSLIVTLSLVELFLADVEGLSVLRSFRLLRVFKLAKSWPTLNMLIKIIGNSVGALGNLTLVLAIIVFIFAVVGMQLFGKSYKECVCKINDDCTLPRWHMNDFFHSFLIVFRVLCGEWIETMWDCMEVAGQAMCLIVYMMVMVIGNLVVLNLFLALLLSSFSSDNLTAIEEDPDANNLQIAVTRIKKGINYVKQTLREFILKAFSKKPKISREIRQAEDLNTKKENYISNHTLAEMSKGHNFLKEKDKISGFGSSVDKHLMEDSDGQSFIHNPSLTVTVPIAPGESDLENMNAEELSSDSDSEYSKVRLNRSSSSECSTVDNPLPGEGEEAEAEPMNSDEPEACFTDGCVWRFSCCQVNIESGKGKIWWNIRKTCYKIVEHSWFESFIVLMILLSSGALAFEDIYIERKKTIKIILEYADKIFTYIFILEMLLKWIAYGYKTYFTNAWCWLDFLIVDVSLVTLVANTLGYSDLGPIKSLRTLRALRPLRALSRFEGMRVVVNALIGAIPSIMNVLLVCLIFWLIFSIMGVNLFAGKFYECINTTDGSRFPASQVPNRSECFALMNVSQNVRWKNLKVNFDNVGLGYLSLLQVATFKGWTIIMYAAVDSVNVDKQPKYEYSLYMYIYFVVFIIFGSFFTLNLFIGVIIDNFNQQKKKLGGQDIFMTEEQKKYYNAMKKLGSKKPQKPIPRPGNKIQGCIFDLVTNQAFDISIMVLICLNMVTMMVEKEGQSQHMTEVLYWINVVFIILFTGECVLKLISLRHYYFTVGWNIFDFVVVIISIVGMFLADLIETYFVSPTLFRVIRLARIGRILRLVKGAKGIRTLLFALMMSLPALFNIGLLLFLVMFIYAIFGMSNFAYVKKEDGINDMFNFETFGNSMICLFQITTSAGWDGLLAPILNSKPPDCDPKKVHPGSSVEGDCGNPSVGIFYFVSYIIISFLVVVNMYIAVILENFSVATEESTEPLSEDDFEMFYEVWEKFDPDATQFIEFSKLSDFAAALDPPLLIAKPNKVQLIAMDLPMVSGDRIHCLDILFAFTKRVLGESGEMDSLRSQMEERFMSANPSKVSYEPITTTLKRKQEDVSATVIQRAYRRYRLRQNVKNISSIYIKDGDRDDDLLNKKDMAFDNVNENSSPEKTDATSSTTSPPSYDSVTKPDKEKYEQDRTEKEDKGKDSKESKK
Description: Whole cell patch clamp, internal block of NaV1.7 current (compound in internal solution). To be noted: % inhibition at 10 μM, compound applied internally, manual patch clamp; read-out: Nav1.7 Intracellular Inhibition. Format: cell-based. The method, boiled down: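 Tetracycline-induced NaV1.7 cells, whole-cell patch clamp at room temperature with compound in CsCl internal solution (pH 7.2), Ringer bath (pH 7.4). Held at −100 mV, steps to −20 mV; after baseline, four 30-s 5 Hz trains. Peak inward current at end of last train divided by baseline gives fraction remaining.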
In general terms: In patch-clamp work, channel activity is measured electrically.
Broadly, the inhibition is the percentage by which the read-out fell short of the control. As for `CNC(=O)Cc1ccc[n+](CC(=O)Nc2c(C)cccc2C)c1` [Compound 33], the inhibition at 10 µM is 70 to 95%.

In the case of `Cc1cccc(C)c1NC(=O)C[n+]1cccc(Cc2ccccc2)c1` [Compound 34], the inhibition at 10 µM fell in the range of 70 to 95%.

Consider `Cc1cccc(C)c1NC(=O)C[n+]1cccc(S(C)(=O)=O)c1` [Compound 46], for which the inhibition at 10 µM was 70 to 95%.

As for `Cc1cccc(C)c1NC(=O)C[n+]1cccc(S(=O)(=O)N(C)C)c1` [Compound 47], the inhibition at 10 µM was in the range of 70 to 95%.

As to `CCNc1ccc[n+](CC(=O)Nc2c(C)cccc2C)c1` [Compound 50], the inhibition at 10 µM is more than 95%.

Consider `Cc1cccc(C)c1NC(=O)C[n+]1cccc(N2CCCC2)c1` [Compound 51], for which the inhibition at 10 µM was more than 95%.

For `Cc1cccc(C)c1NC(=O)C[n+]1cc2ccccc2n1C` [Compound 54], the inhibition at 10 µM lay within 70 to 95%.

As for `Cc1cccc(C)c1NC(=O)C[n+]1cccc(C(F)(F)F)c1` [Compound 66], the inhibition at 10 µM lay in the range of 70 to 95%.

Turning to `Cc1cccc(C)c1NC(=O)C[n+]1cccn1CC#N` [Compound 69], the inhibition at 10 µM fell in the range of 40 to 70%.

In the case of `Cc1cccc(C)c1NC(=O)C[n+]1cccn1C1CCCC1` [Compound 71], the inhibition at 10 µM is more than 95%.

As to `Cc1cccc(C)c1NC(=O)C[n+]1cccn1CC1CC1` [Compound 73], the inhibition at 10 µM is more than 95%.

For the molecule `CCOC(=O)CCCn1ccc[n+]1CC(=O)Nc1c(C)cccc1C` [Compound 75], the inhibition at 10 µM was more than 95%.

As for `CCOC(=O)Cn1cc(C)c[n+]1CC(=O)Nc1c(C)cccc1C` [Compound 76], the inhibition at 10 µM fell in the range of 70 to 95%.

On to `Cc1cccc(C)c1NC(=O)C[n+]1cc(F)cc(-c2ccccc2)c1` [Compound 77], for which the inhibition at 10 µM was more than 95%.

Turning to `CCCn1c(C)cc[n+]1CC(=O)Nc1c(C)cccc1C` [Compound 81], the inhibition at 10 µM is 70 to 95%.

In the case of `CCCCn1ccc[n+]1CC(=O)Nc1c(C)cccc1C` [Compound 83], the inhibition at 10 µM lay in the range of 70 to 95%.

As to `CCOC(=O)c1cc(C)[n+](CC(=O)Nc2c(C)cccc2C)n1C` [Compound 84], the inhibition at 10 µM fell in the range of 70 to 95%.

On to `COC(=O)c1c(F)c[n+](CC(=O)Nc2c(C)cccc2C)cc1F` [Compound 89], for which the inhibition at 10 µM lay within 40 to 70%.

Turning to `Cc1cccc(C)c1NC(=O)C[n+]1c(C)cc(C)n1C` [Compound 94], the inhibition at 10 µM lay in the range of 70 to 95%.

For the molecule `CCn1ccc(C)[n+]1CC(=O)Nc1c(C)cccc1C` [Compound 95], the inhibition at 10 µM was less than 40%.

Take `COc1cc(OC)c[n+](CC(=O)Nc2c(C)cccc2C)c1` [Compound 98]: the inhibition at 10 µM fell in the range of 70 to 95%.

`CCCn1ccc(C)[n+]1CC(=O)Nc1c(C)cccc1C` [Compound 101]: the inhibition at 10 µM was in the range of 70 to 95%.

Take `Cc1cccc(C)c1NC(=O)C[n+]1cc(OCc2ccccc2)ccc1Cl` [Compound 103]: the inhibition at 10 µM is more than 95%.

Regarding `CCn1c(C)cc[n+]1CC(=O)Nc1c(C)cccc1C` [Compound 104], the inhibition at 10 µM was 70 to 95%.

As to `Cc1cccc(C)c1NC(=O)C(Cc1ccccc1)[n+]1ccccc1` (stereo not drawn) [Compound 106], the inhibition at 10 µM is more than 95%.

Regarding `Cc1cccc(C)c1NC(=O)C(CC(C)C)[n+]1ccccc1` (stereo not drawn) [Compound 108], the inhibition at 10 µM lay in the range of 70 to 95%.

In the case of `Cc1cccc(C)c1NC(=O)Cn1ccc[n+]1CC(=O)Nc1c(C)cccc1C` [Compound 109], the inhibition at 10 µM is more than 95%.

For the origin of these results see US10934263B2, “Charged ion channel blockers and methods for use” (Nocion Therapeutics, Inc., priority 2019, dated 2021).
